# Reference: patent US5552389A, “Suppressory compositions against hepatic metastases of tumors” (Senju Pharmaceutical Co., Ltd., priority 1994, dated 1996)
# Counter-ions that a name gives are not always drawn.
# Tests used:
# [1] = Acute toxicity (LD50) in rats; conditions: rat, in vivo
# AH60C cells = assay: Number of tumor nodules on the liver surface in the AH60C hepatic metastasis model in rats; assay type: in vivo, Male Donryu rats; AH60C cells derived from rat hepatoma; conditions: 5 mg/kg i.v. an hour before surgical invasion (laparothoractomy); 5×10^5 AH60C cells via portal vein; 3 weeks later; Group C (not treated) 27.2±30.0; p<0.01 (Mann-Whitney U)
# Experimental: (§1) Using a model of hepatic metastasis of tumor, an experiment was conducted to determine a correlation of hepatic metastasis of tumor with a level of liver lipid peroxide (LPO). In addition, an experiment was effected on the Present Compound in terms of its suppressory effect of liver lipid peroxide (LPO) and suppressory effect on hepatic metastasis of tumor.
# (§2) Male Donryu rats (ca. 10-weeks aged) were employed as an experimental animal, while AH60C cells (derived from rat hepatoma) were used as a tumor cell. The rats were divided into three groups, namely a laparothoractomy group (Group LT) undergoing intratracheal intubation, followed by thoraco-laparotomy for one hour, a laparotomy group (Group L) undergoing only laparotomy for one hour and a control group (Group C) undergoing laparotomy, followed by immediate closure of the abdomen. The rats were subjected to laparotomy under anesthesia with ether and Ketalar and given 5×10^5 of AH60C cells through the portal vein to inflict surgical invasion, followed by laparotomy three weeks later to determine the number of tumor nodules on the liver surface. In addition to this, the serum samples were drawn, while the liver and lung tissues were isolated, on Disease Days 1. 2 and 3 to determine their respective levels of lipid peroxide by the TBA method. […]
# [2] = system: liver lipid peroxide (LPO); assay: Level of liver lipid peroxide (LPO, TBA method) after surgical invasion (laparothoractomy) in rats; assay type: in vivo, Male Donryu rats; conditions: 5 mg/kg i.v. an hour before surgical invasion (laparothoractomy); 24 hours later; elevation significantly suppressed, p<0.05 (Mann-Whitney U)
# Experimental: as §1, §2
smiles,measurement,setting,value
"Cc1c(C)c2c(c(C)c1OP(=O)(O)OC1=C(O)[C@@H]([C@@H](O)CO)OC1=O)CCC(C)(CCCC(C)CCCC(C)CCCC(C)C)O2 (mixture of isomers) [EPC-K, potassium salt of a phosphoric acid diester of L-ascorbic acid and DL-α-tocopherol]",LD50,[1]; iv,≥ 100 mg/kg
same,LD50,[1]; po,5000 mg/kg
same,number of tumor nodules on the liver surface,AH60C cells,8.9±12.7
same,level of liver lipid peroxide (LPO),[2],18.9 ± 17.9 nmol/g
